pEC50: −log10 of the molar value. Where two headings read alike, the source gives them in different places.
Columns and labels:
recombinant BARS = target: T1, recombinant BARS (Rattus norvegicus, UniProt Q9Z2F5); experiment: NAD competition assay ([3H]-NAD+ binding to BARS, dot blot); settings: for NAD Displac. (%): 10 μM [3H]-NAD+, molecules 0.01 to 100 μM, 2 h 37° C.; for competition for the binding of NAD to BARS (selection): 0.01 to 100 μM
T1 construct: His; made in house
Procedure: Five μg of recombinant BARS were incubated for 2 h at 37° C. in 100 μl buffer (20 mM HEPES at pH 7.4, 25 mM NaCl and 10 μM [^3H]-NAD^+ (specific activity: 1 μCi/μmol)) in the presence of a range of concentrations (from 0.01 to 100 μM) of the molecules listed in table 1. At the end of the incubation BARS was recovered by trapping it to nitrocellulose using a Dot-Blot apparatus (Bio-Rad Laboratories, UK) according to manufacturer instruction. The samples were washed three times in ice-cold HEPES buffer (20 mM, pH 7.4). The amount of radiolabelled NAD bound to BARS was measured using a BetaImager (BioSpace Lab); the total amount of BARS bound to nitrocellulose was evaluated by red ponceau staining (Sigma-Aldrich) according to manufacturer instructions. Quantitative analyses were performed using GraphPad Prism Software.
A second virtual library was performed using the whole KEGG COMPOUND Database. […] To rank the molecules according to their affinity for BARS, the inventors set up a new assay for determining the capability of the 28 candidate molecules to compete for the binding of NAD to BARS. To this purpose, radiolabeled NAD and recombinant BARS were incubated for 2 h in the presence of a range of concentrations (from 0.01 to 100 μM) of the molecules. At the end of the incubation BARS was recovered by trapping it to nitrocellulose using a dot blot apparatus, and the radiolabelled NAD bound to BARS was evaluated by measuring the radioactivity using a BetaImager (BioSpace Lab).

HeLa cells = experiment: Cell viability assay (Hoechst cell number); settings: for effect on cell viability: even at 100 microM; for 50% Viability: 0.01 to 100 μM
Procedure: Quantitative analyses were performed using a GraphPad Prism Software.
At the end of the incubation the cells have been fixed, stained with Hoechst to label the DNA and analysed using a fluorescence microscope for the automated images acquisition and analysis (Olympus ScaR). […] An EC50 was calculated for the remaining molecules.

[1] = system: Zonula Occludens (ZO1), CtBP target gene; experiment: Expression of CtBP target genes, Western blot of Zonula Occludens; format: cell-based, human; settings: HeLa; for protein levels of Zonula Occludes: 2 and 4 days, Western blot; for minimal effective concentration: minimum effective concentration, Zonula Occludens protein, read-out: CtBP target genes increase (corepressive activity inhibition) Western Blot
Procedure: At the end of the incubations part of the samples was analyzed by western blot. To this purpose, the samples were washed with ice-cold PBS and lysed in 100 μl of SDS sample buffer. The samples were then separated on 8% SDS-PAGE gels, transferred onto nitrocellulose, and subjected to Western blotting using an antibody against Zonula Occludens (anti ZO1; Cell Signaling N. Cat. 5406) and an antibody against GAPDH (AbD Serotec) as a reference. The anti ZO1 antibody was used at a 1:1000 dilution; the anti GAPDH antibody was used at an 1:100000 dilution. The nitrocellulose membranes were subjected to ECL (as described above). The freeware ImageJ software (http://imagej.nih.gov) was used for quantitative analysis.

[2] = Homo sapiens, 48 h, read-out: 50% Viability

C[C@H]1[C@H](NC(=O)C(=NOC(C)(C)C(=O)O)c2csc(N)n2)C(=O)N1S(=O)(=O)O (stereo in doubt) [C28, 2-[(Z)-[1-(2-amino-1,3-thiazol-4-yl)-2-[[(2S,3S)-2-methyl-4-oxo-1-sulfoazetidin-3-yl]amino]-2-oxoethylidene]amino]oxy-2-methylpropanoic acid]
NAD Displac. (%) (recombinant BARS): 15%
effect on cell viability (HeLa cells; 48 h): did not affect (or had minor effects)
protein levels of Zonula Occludes [1]: able to increase
minimal effective concentration ([1]; Homo sapiens): 1 µM

CC(=O)CC(c1ccccc1)c1c(O)c2ccccc2oc1=O (stereo not drawn) [C1, 4-Hydroxy-3-(3-oxo-1-phenylbutyl)-2H-1-benzopyran-2-one]
NAD Displac. (%) (recombinant BARS): 15%
competition for the binding of NAD to BARS (selection) (recombinant BARS): best competitors
effect on cell viability (HeLa cells; 48 h): did not affect (or had minor effects)
pEC50 (HeLa cells; [2]): < 4.00
protein levels of Zonula Occludes [1]: able to increase
minimal effective concentration ([1]; Homo sapiens): 100 µM

NS(=O)(=O)Oc1ccc2c3c(c(=O)oc2c1)CCCCC3 [C3, Sulfamic acid 6-oxo-6,7,8,9,10,11-hexahydrocyclohepta[c]-1-benzopyran-3-yl ester]
pEC50 (HeLa cells; [2]): 5.00

CC(=O)CC(c1ccc(Cl)cc1)c1c(O)c2ccccc2oc1=O (stereo not drawn) [C4, 3-[1-(4-chlorophenyl)-3-oxobutyl]-4-hydroxychromen-2-one]
NAD Displac. (%) (recombinant BARS): 20%
competition for the binding of NAD to BARS (selection) (recombinant BARS): best competitors
effect on cell viability (HeLa cells; 48 h): did not affect (or had minor effects)
pEC50 (HeLa cells; [2]): < 4.00
protein levels of Zonula Occludes [1]: able to increase
minimal effective concentration ([1]; Homo sapiens): 10 µM

CC(=O)CC(c1ccc([N+](=O)[O-])cc1)c1c(O)c2ccccc2oc1=O (stereo not drawn) [C5, 4-Hydroxy-3-[1-(4-nitrophenyl)-3-oxobutyl]-2H-1-benzopyran-2-one]
effect on cell viability (HeLa cells; 48 h): did not affect (or had minor effects)
pEC50 (HeLa cells; [2]): < 4.00

COc1cc(CNC(=O)CCCC/C=C/C(C)C)ccc1O [C6, N-(4-Hydroxy-3-methoxybenzyl)-8-methyl-6(E)-nonenamide 8-Methyl-N-vanillyl-trans-6-nonenamide]
NAD Displac. (%) (recombinant BARS): 20%
competition for the binding of NAD to BARS (selection) (recombinant BARS): best competitors
effect on cell viability (HeLa cells; 48 h): did not affect (or had minor effects)
pEC50 (HeLa cells; [2]): < 4.00

O=C1C2C3c4ccccc4C(c4ccccc43)C2C(=O)N1C(CO)(CO)CO [C8, (9R,10S,11S,15R)-13-(1,3-dihydroxy-2-(hydroxymethyl)propan-2-yl)-10,11-dihydro-9H-9,10-[3,4]epipyrroloanthracene-12,14(13H,15H) dione]
effect on cell viability (HeLa cells; 48 h): did not affect (or had minor effects)
pEC50 (HeLa cells; [2]): < 4.00
protein levels of Zonula Occludes [1]: able to increase
minimal effective concentration ([1]; Homo sapiens): 10 µM

CN1CCc2c(sc(/N=C/c3cccs3)c2C(N)=O)C1 [C9, 6-methyl-2-[(E)-(thiophen-2-ylmethylidene)amino]-4H,5H,6H,7H-thieno[2,3-c]pyridine-3-carboxamide]
effect on cell viability (HeLa cells; 48 h): did not affect (or had minor effects)
pEC50 (HeLa cells; read-out: 50% Viability, 48 h, 0.01 to 100 μM): < 4.00
protein levels of Zonula Occludes [1]: able to increase
minimal effective concentration [1]: 10 µM

CCCCOc1ccc(C2=N/C(=C\c3cc(OC)c(OC)cc3OC)C(=O)O2)cc1 [C10, (4Z)-2-(4-butoxyphenyl)-4-[(2,4,5-trimethoxyphenyl)methylidene]-4,5-dihydro-1,3-oxazol-5-one]
NAD Displac. (%) (recombinant BARS): 30%
competition for the binding of NAD to BARS (selection) (recombinant BARS): best competitors
50% Viability (HeLa cells; 48 h): Little
effect on cell viability (HeLa cells; 48 h): did not affect (or had minor effects)

Cc1c(Cc2c(Cl)cccc2Cl)c(=O)oc2cc(OCC(=O)OCC(=O)c3ccc(Cl)cc3)ccc12 [C12, 2-(4-chlorophenyl)-2-oxoethyl 2-{[3-(2,6-dichlorobenzyl)-4-methyl-2-oxo-2H-chromen-7-yl]oxy}acetate]
NAD Displac. (%) (recombinant BARS): 23%
competition for the binding of NAD to BARS (selection) (recombinant BARS): best competitors
50% Viability (HeLa cells; 48 h): Little
effect on cell viability (HeLa cells; 48 h): did not affect (or had minor effects)

O=C1OC(c2c(O)c3ccccc3oc2=O)c2ccccc21 (stereo not drawn) [C14, 4-hydroxy-3-(3-oxo-1,3-dihydroisobenzofuran-1-yl)-2H-chromen-2-one]
pEC50 (HeLa cells; [2]): 5.00

COc1ccc(-c2coc3cc(O[C@@H]4O[C@H](CO)[C@@H](O)[C@H](O)[C@H]4O)ccc3c2=O)cc1 [C15, 3-(4-methoxyphenyl)-7-{[(2S,3R,4S,5S,6R)-3,4,5-trihydroxy-6-(hydroxymethyl)oxan-2-yl]oxy}-4H-chromen-4-one]
50% Viability (HeLa cells; 48 h): Little
effect on cell viability (HeLa cells; 48 h): did not affect (or had minor effects)
protein levels of Zonula Occludes [1]: able to increase
minimal effective concentration ([1]; Homo sapiens): 5 µM

O=C(CCc1ccc(O)cc1)c1c(O)cc(O)cc1O[C@@H]1O[C@H](CO)[C@@H](O)[C@H](O)[C@H]1O [C16, 1-(2,4-dihydroxy-6-{[(2S,3R,4S,5S,6R)-3,4,5-trihydroxy-6-(hydroxymethyl)oxan-2-yl]oxy}phenyl)-3-(4-hydroxyphenyl)propan-1-one]
effect on cell viability (HeLa cells; 48 h): did not affect (or had minor effects)
pEC50 (HeLa cells; [2]): < 4.00

COc1cc(C2Oc3c(O)cc(C4Oc5cc(O)cc(O)c5C(=O)C4O)cc3C2CO)ccc1O (stereo not drawn) [C17, 3beta,5,7-Trihydroxy-2alpha-[7-hydroxy-2beta-(4-hydroxy-3-methoxyphenyl)-3alpha-(hydroxymethyl)-2,3-dihydrobenzofuran-5-yl]-2,3-dihydro-4H-benzo[b]pyran-4-one]
effect on cell viability (HeLa cells; 48 h): did not affect (or had minor effects)
pEC50 (HeLa cells; [2]): < 4.00

O=C(O)Cc1nn(Cc2nc3cc(C(F)(F)F)ccc3s2)c(=O)c2ccccc12 [C18, 2-[4-Oxo-3-[5-(trifluoromethyl)benzothiazol-2-ylmethyl]-3,4-dihydrophthalazin-1-yl]acetic acid]
50% Viability (HeLa cells; 48 h): Little
effect on cell viability (HeLa cells; 48 h): did not affect (or had minor effects)

C#C[C@]1(O)CC[C@H]2[C@@H]3CCc4cc(OC5CCCC5)ccc4[C@H]3CC[C@@]21C [C19, 17alpha-Ethynylestradiol 3-cyclopentyl ether]
pEC50 (HeLa cells; [2]): 6.00

NC(=O)[C@@H]1CCCN1C(=O)[C@H](Cc1cnc[nH]1)NC(=O)[C@@H]1CCC(=O)N1 [C21, (2S)-N-[(2S)-1-[(2S)-2-carbamoylpyrrolidin-1-yl]-3-(1H-imidazol-5-yl)-1-oxopropan-2-yl]-5-oxopyrrolidine-2-carboxamide]
effect on cell viability (HeLa cells; 48 h): did not affect (or had minor effects)
pEC50 (HeLa cells; [2]): < 4.00

NCc1ccccc1CC(=O)N[C@@H]1C(=O)N2C(C(=O)O)=C(CSc3nnnn3CC(=O)O)CS[C@H]12 [C29, (6R,7R)-7-[2-[2-(Aminomethyl)phenyl]acetamido]-3-[1-(carboxymethyl)-1H-tetrazol-5-ylsulfanylmethyl]-8-oxo-5-thia-1-azabicyclo[4.2.0]-2-octene-2-carboxylic acid]
NAD Displac. (%) (recombinant BARS): 35%
competition for the binding of NAD to BARS (selection) (recombinant BARS): best competitors
effect on cell viability (HeLa cells; 48 h): did not affect (or had minor effects)
pEC50 (HeLa cells; [2]): < 4.00
